Key:
bovine oocytes [1] = assay: Oocyte nuclear morphology assessment (GV configuration, GVBD, meiotic progression); type: cell-based
Experimental: At the end of the incubation, COCs were denuded and oocytes were fixed for 30 min in 4% paraformaldehyde in PBS (pH 7.4). Oocytes were then permeabilized in 0.1% Triton X-100 in 0.1% sodium citrate for 1 hour, then transferred to 0.001% 4′,6-diamidino-2-phenylindole (DAPI), a fluorescence stain for nuclear material, for 15 min. Oocytes were rinsed 3 times in PBS+0.03% BSA, mounted on slides and evaluated for nuclear status at 400× using an Olympus fluorescence microscope. Stages of germinal vesicle (GV) and subsequent meiotic development were assessed based on known techniques (Chohan and Hunter, 2003, Anim. Reprod. Sci. 76: 43-51). In brief, GV chromatin of bovine oocytes was classified into: GV I—condensed filamentous chromatin around the nucleolus and nuclear membrane; GV II—filamentous chromatin surrounding the nucleolus; GV III—filamentous chromatin clumps are distributed in the nucleus and the nucleolus has disappeared; GV IV—chromatin has condensed into a thick clump; Early diakenesis-chromatin beginning to condense into a single lump; Diakenesis-chromatin has condensed into a single lump; Metaphase I—tetrads are aligned on the spindle; and Metaphase II—the metaphase chromatin is evident as well as a small chromatin-containing polar body.
Oocytes were then fixed and assessed for meiotic progression and classified as GV (germinal vesical intact—still under meiotic arrest) or GVBD (germinal vesical breakdown—resumption of meiosis). A mean number of 45 oocytes were used in each treatment group and time-point from four replicate experiments. The presence of letters (a or b) above each column indicate a statistical difference between the means as determined by ANOVA analysis followed by Bonferronni's post hoc test, P<0.05.
Oocytes were exposed to pre-IVM phase media comprising pure follicular fluid, collection medium, or collection medium supplemented with cAMP modulators (forskolin and IBMX) (A), followed by extended culture in the presence (C; E) or absence (B; D) of the type-3 PDE inhibitor, cilostamide (20 μM), plus follicle stimulating hormone. Oocytes were then fixed and assessed for GV configuration at 2, 5 and 9 hours. A mean number of 40 oocytes were used in each treatment group and time-point from four replicate experiments.
As indicated above, oocytes were aspirated and selected in either follicular fluid, collection medium or collection medium supplemented with 100 μM forskolin (FSK) and 500 μM IBMX for 2 hours. […] Oocytes were then fixed and assessed for meiotic progression at 20, 24 and 28 hours. A mean number of 45 oocytes were used in each treatment group and time-point from four replicate experiments.

[2] = system: oocyte-cumulus cell gap junctional communication; assay: Oocyte-cumulus cell gap junctional communication assay (calcein transfer); type: cell-based, bovine; conditions: after 3 hours of IVM culture post pre-IVM phase, FIG. 7
Experimental: Cumulus-oocyte gap junctional communication (GJC) was measured by quantitative fluorescence microscopy of calcein transfer to the oocyte as described previously (Thomas et al., 2004, In “Biol. Reprod.”, pp 1142-1149). GJC was measured either after 2 hours of pre-IVM phase or followed by an additional 3 hours of IVM with or without cilostamide (20 μM). A mean number of 10-12 oocytes were used in each treatment group in each of four replicate experiments. After culture, COCs were transferred to a solution of 1 μM calcein-AM (3′,6′-di(O-acetyl)-2′,7′-bis[N,N-bis(carboxymethyl)amino methyl]-fluorescein, tetraacetoxy methyl ester; C-3100; Molecular Probes; Eugene, Oreg., USA) freshly prepared in a BSA-free Bovine VitroCollect (Cook Australia) supplemented with polyvinyl alcohol (PVA; 0.3 mg/ml). […] Prior to fluorescence microphotometry, COCs were completely denuded of their surrounding cumulus cells using vigorous pipetting so that only dye confined within the denuded oocyte after transport via gap junctions was measured. Within 30 minutes of denuding, the intra-oocyte fluorescence emission of calcein in oocytes was measured using a fluorophotometric-inverted microscope (Leica, Wetzlar, Germany). […]

bovine oocytes [3] = assay: Bovine in vitro fertilization and embryo culture (cleavage, blastocyst development); type: cell-based
Experimental: At 24 or 30 hours after IVM, COCs were washed twice using Bovine VitroWash (Cook Australia), and transferred to insemination dishes containing in vitro fertilisation (IVF) medium (Bovine VitroFert, Cook Australia) supplemented with penicillamine (0.2 mM; Sigma), hypotaurine (0.1 mM; Sigma), and heparin (2 mg/ml; Sigma). Frozen semen from a single bull of proven fertility was used for insemination. Briefly, thawed semen was layered over a discontinuous (45%: 90%) Percoll gradient (Amersham Bioscience) and centrifuged for 20-25 minutes at 700 g. The supernatant was removed and the sperm pellet was washed with 500 μl Bovine VitroWash and centrifuged for a further 5 minutes at 200 g. […] Embryos were assessed for quality at Day 8 according to the definitions presented in Stingfellow and Seidel, 1998, Manual of the International Embryo Transfer Society. […]
Therefore, cumulus-oocyte complexes (COCs) were aspirated and selected in either follicular fluid, collection medium or collection medium supplemented with 100 μM forskolin (FSK) and 500 μM IBMX for 2 hours. […] Oocyte developmental capacity was then assessed after in vitro fertilization and embryo development was assessed by the cleavage rate and blastocyst rate on day 8. […]

human oocytes = assay: Human oocyte IVM, meiosis score; type: cell-based; conditions: for % GV / % GVBD / % PB: IVM with 0.1 μM cilostamide and FSH
Experimental: Immature human cumulus-oocyte complexes (COC) were collected from young, healthy women (not from IVF patients). […] Oocyte pick-up was performed when the lead ovarian follicle reached 12 mm. Immature oocytes were then stratified to various treatments during either the Pre-IVM or IVM periods, as detailed below. In addition, time of removal of somatic cells from oocytes (denuding) during the oocyte maturation period was examined. The following trials were conducted: • Dose of PDE3-inhibitor (cilostamide) during IVM: 0 versus 0.1 versus 1.0 μM • cAMP modulators during Pre-IVM: control versus IBMX versus IBMX+forskolin • Effect of time of oocyte denuding on embryo development: 30 versus 40 versus 44-48 hours
At the oocyte pick-up, COC were collected immediately into pre-IVM treatments in VitroCollect medium (Cook Australia, Brisbane, Australia) and held for one hour. Following pre-IVM, COC were washed and then transferred to IVM treatments (e.g. dose of cilostamide) in VitroMat medium (Cook) and matured under standard conditions. At the various times post-denuding, oocytes were monitored for maturation (polar body [PB] extrusion). At the end of maturation (48 hours) a final meiosis score was given. As oocytes matured they were inseminated using standard intra-cytoplasmic sperm injection (ICSI) procedures using donor sperm. 24 hours later fertilisation rates were determined. Embryos were cultured for up to 6 days until developmental arrest using standard procedures.

[4] = system: FSH-induced oocyte maturation; assay: EGFR kinase inhibitor on FSH-induced oocyte maturation in presence of cilostamide; type: cell-based, bovine
Experimental: The basic oocyte maturation medium (also referred to as the “IVM medium” or “IVM phase medium”) used for the IVM phase was a bovine maturation medium (termed Bovine VitroMat, Cook Australia), a medium formulated to closely replicate the ionic composition of bovine follicular fluid. Where indicated, the type-3 PDE specific inhibitor cilostamide (20 μM; Biomol Plymouth Meeting, Pa.) or the epidermal growth factor receptor (EGFR) kinase inhibitor, AG1478 (Alexis Biochemicals, San Diego, Calif.), were added to the IVM medium from a millimolar stock solution stored at −20° C. dissolved in DMSO. […]
At the end of the incubation, COCs were denuded and oocytes were fixed for 30 min in 4% paraformaldehyde in PBS (pH 7.4). Oocytes were then permeabilized in 0.1% Triton X-100 in 0.1% sodium citrate for 1 hour, then transferred to 0.001% 4′,6-diamidino-2-phenylindole (DAPI), a fluorescence stain for nuclear material, for 15 min. Oocytes were rinsed 3 times in PBS+0.03% BSA, mounted on slides and evaluated for nuclear status at 400× using an Olympus fluorescence microscope. Stages of germinal vesicle (GV) and subsequent meiotic development were assessed based on known techniques (Chohan and Hunter, 2003, Anim. Reprod. Sci. 76: 43-51). […]
Oocytes were then fixed and assessed for meiotic progression at 24 hours. […]

[5] = system: cAMP content of the whole COCs; assay: cAMP content of bovine COCs, radioimmunoassay; type: cell-based; conditions: agent alone, up to 2 hours, FIG. 2
Experimental: Oocytes were aspirated with their cumulus vestments intact (COCs). A subset of the COCs were denuded of their cumulus vestment prior to assay (DO). Aspiration and subsequent selection procedures (pre-IVM phase) were performed for 2 hours where oocytes (COCs and DOs) were processed in various media (termed “pre-IVM phase media” or “pre-IVM media”). These included processing of oocytes either in follicular fluid, or in two types of collection medium. […] Cyclic AMP content of COCs and denuded oocytes (DOs), i.e. those oocytes cultured as COCs but denuded of their cumulus vestment prior to assay, were measured using a radioimmunoassay method described and validated previously (Reddoch et al., 1986, Endocrinology 119: 879-886). […] Briefly, supernatants were collected, evaporated, resuspended in assay buffer (50 mM sodium acetate, pH 5.5) and acetylated by the addition of triethylamine (AJAX Chemicals, Sydney, Australia) and acetic anhydride (BDH Laboratory Supplies, Poole, England) 2:1 v/v. cAMP was measured in duplicates after appropriate dilution. ^125I-labelled cAMP (specific activity of 2175 Ci/mM) and cAMP antibody (as prepared by Reddoch et al supra) were added to samples and left overnight at 4° C. […] The supernatant was removed and the pellet dried and counted using a gamma counter. […]

CN(C(=O)CCCOc1ccc2[nH]c(=O)ccc2c1)C1CCCCC1 [cilostamide]
rates of GVBD (bovine oocytes [1]; 2 h pre-IVM, 7 h IVM with FSH and cilostamide 20 μM, all pre-IVM treatments, FIG. 5): significantly lowered the rates of GVBD
oocytes at GV IV (bovine oocytes [1]; 9 hours, collection medium lacking cAMP modulators, 7 h IVM+cilostamide, FIG. 6E): 51%±10
oocytes at M I stage (bovine oocytes [1]; 20 hours of IVM with cilostamide, absence of FSH, FIG. 8A): 36%±4
oocytes at M I stage (bovine oocytes [1]; 20 hours of IVM+cilostamide, presence of FSH, FIG. 8B): 21%±4
oocytes progressed to M II stage (bovine oocytes [1]; 24 hours of IVM with cilostamide, absence of FSH, FIG. 8A): 50%
oocytes arrested at the M I stage (bovine oocytes [1]; cilostamide, absence of FSH, 24 hours of culture, FIG. 8A): 40-50%
levels of gap junctional communication [2]: had no effect in maintaining the level of gap junctional communication
% Blastocysts (bovine oocytes [3]; collection phase CM without cAMP modulators, IVM +cilostamide, maturation time 24): 22%
effect of dose on resumption of meiosis (human oocytes; cilostamide 0.1 μM): non-inhibiting
Germinal Vesicle Breakdown (human oocytes; cilostamide 0.1 μM during IVM (n = 39)): 44%
effect of dose on resumption of meiosis (human oocytes; cilostamide 1.0 μM): inhibiting dose
Germinal Vesicle Breakdown (human oocytes; cilostamide 1.0 μM during IVM (n = 38)): 13%

COc1cc2ncnc(Nc3cccc(Cl)c3)c2cc1OC [AG1478]
maturation percentage ([4]; FSH 100 mlU, cilostamide 20 μM, increasing doses of AG1478, 24 hours, from >80% without, FIG. 10): approximately 5%
meiotic recovery of FSH and cilostamide treated COCs ([4]; increasing doses of AG1478): completely prevented the meiotic recovery

CC(C)Cn1c(=O)n(C)c(=O)c2[nH]cnc21 [IBMX, 3-isobutyl 1-methylxanthine]
COC cAMP levels during pre-IVM [5]: maintained cAMP levels for 2 hours
development to the blastocyst stage (bovine oocytes [3]; 30-60 minutes pre-IVM, IVM with 20 μM cilostamide, FIG. 11B): significantly higher than control
% GV (human oocytes; 36-40 hours): 10.3%
% GVBD (human oocytes; 36-40 hours): 43.6%
% PB (human oocytes; 36-40 hours): 46.2%
% GV (human oocytes; 42-44 hours): 9.4%
% GVBD (human oocytes; 42-44 hours): 28.1%
% PB (human oocytes; 42-44 hours): 62.5%
% GV (human oocytes; 30 hours): 11.1%
% GVBD (human oocytes; 30 hours): 48.1%
% PB (human oocytes; 30 hours): 40.7%
% GV (human oocytes; 48 hours): 10.3%
% GVBD (human oocytes; 48 hours): 28.2%
% PB (human oocytes; 48 hours): 61.5%
